Tested on: 5-hydroxytryptamine induced bronchoconstriction
Assay: inhibition of 5-hydroxytryptamine induced bronchoconstriction (Konzett-Rossler preparation)
Format: in vivo
Settings: Cavia porcellus, iv; intravenously; anaesthetised, artificially respired guinea pig; read-out: IC50 for inhibition of bronchoconstriction
From the text: The compounds were examined for their ability to inhibit 5-hydroxytryptamine induced bronchoconstriction in the anaesthetised, artifically respired guinea pig (Konzett-Rossler preparation - ref: H. Konzett and R. Rossler, 1940, Arch. exp. Path. Pharmak., 195, 71).

CCCCC(C)(O)CCCCN1C(=O)CC(=O)C1CCCCCCC(=O)OC (stereo not shown) [Compound 30, 2-(6'-Methoxycarbonyl-n-hexyl)-1-(5"-hydroxy-5"-methyl-n-nonyl)-pyrrolidin-3,5-dione]
ED50: 0.012 mg/kg
